Experimental findings from ChEMBL document CHEMBL5375972, “Discovery of Novel 2,3-Dihydro-1H-indene-5-sulfonamide NLRP3 Inflammasome Inhibitors Targeting Colon as a Potential Therapy for Colitis” (J Med Chem, 2023) are described below.

The nature of series [1]: Stability of compound in rat liver measured for 48 hrs. It is filed as ADME, tissue-based.
Series [2] in a line: Subacute toxicity in C57BL/6 mouse assessed as change in kidney weight at 100 mg/kg,ip administrated for 14 days. It is filed as organism-based. The settings on record: in vivo, 336 h, time 14 day.
Series [3] is described as follows: Acute toxicity in Kunming mouse model assessed as change in body weight at 1000 mg/kg,IG administration for 7 days. It is filed as organism-based. The settings on record: in vivo, po, 168 h, time 7 day.
The nature of series [4]: Subacute toxicity in C57BL/6 mouse assessed as change in kidney weight at 10 mg/kg,ip administrated for 14 days. The settings on record: in vivo, 336 h, time 14 day. It is filed as organism-based.
A short description of series [5]: Acute toxicity in Kunming mouse model assessed as lethargy at 1000 mg/kg,IG administration for 7 days. Particulars: in vivo, po, 168 h, time 7 day. It is filed as organism-based.
Series [6] can be described thus: Subacute toxicity in C57BL/6 mouse assessed as body weight gain at 10 mg/kg,ip administrated for 14 days. The settings on record: in vivo, 336 h, time 14 day. It is filed as organism-based.
The subject of series [7] is Mus musculus. The experiment in a line: Anti-inflammatory activity in DSS-induced ulcerative colitis C57BL/6 mouse model assessed as reduction in inflammatory cell infiltration in colon at 10 mg/kg,ip administrated for 9 days by Hematoxylin-eosin staining based microscopic analysis. It is filed as functional, organism-based. Particulars: time 9.0 day.

Molecules are shown by their SMILES. Calls of active or inactive are those of the source. No cut-off for these calls is given here.

Consider `CCCNS(=O)(=O)c1ccc2c(c1)CC(N(Cc1cc(Cl)ccc1OCCOC)C(=O)c1cc3ccccc3o1)C2` (racemic), for which, in series [1], the Stability result is “Stable”. In addition, the Activity entry in series [2] is “Non-Toxic”; in series [3] it was “Non-Toxic”; in series [4], “Non-Toxic”; in series [5] it was “Non-Toxic”; in series [6] it was “Toxic”. In series [7], the outcome was Active.
